# Assay results: US10399988B2, “4-aminopyrazolo[3,4-d]pyrimidinylazabicyclo derivatives and pharmaceutical composition comprising the same” (Daewoong Pharmaceutical Co., Ltd., priority 2016, dated 2019)
# Key:
# [1] = target: BTK (Homo sapiens, UniProt Q06187); assay: Inhibitory activity against BTK (ADP-Glo + BTK Kinase enzyme system kit)
# [2] = target: T1, ITK (Homo sapiens, UniProt Q08881); assay: Inhibitory activity against ITK (ADP-Glo + ITK Kinase enzyme system kit); selectivity BTK vs. ITK; format: biochemical; conditions: for IC50: ITK enzyme 0.4 ng/uL, ATP 25 uM, luminescence, duplicate; for Selectivity (based on IC50): selectivity for the inhibitory activity of BTK vs. ITK, Equation 1
# T1 construct: purchased Promega Corporation
# T1 sequence (Q08881 1-620): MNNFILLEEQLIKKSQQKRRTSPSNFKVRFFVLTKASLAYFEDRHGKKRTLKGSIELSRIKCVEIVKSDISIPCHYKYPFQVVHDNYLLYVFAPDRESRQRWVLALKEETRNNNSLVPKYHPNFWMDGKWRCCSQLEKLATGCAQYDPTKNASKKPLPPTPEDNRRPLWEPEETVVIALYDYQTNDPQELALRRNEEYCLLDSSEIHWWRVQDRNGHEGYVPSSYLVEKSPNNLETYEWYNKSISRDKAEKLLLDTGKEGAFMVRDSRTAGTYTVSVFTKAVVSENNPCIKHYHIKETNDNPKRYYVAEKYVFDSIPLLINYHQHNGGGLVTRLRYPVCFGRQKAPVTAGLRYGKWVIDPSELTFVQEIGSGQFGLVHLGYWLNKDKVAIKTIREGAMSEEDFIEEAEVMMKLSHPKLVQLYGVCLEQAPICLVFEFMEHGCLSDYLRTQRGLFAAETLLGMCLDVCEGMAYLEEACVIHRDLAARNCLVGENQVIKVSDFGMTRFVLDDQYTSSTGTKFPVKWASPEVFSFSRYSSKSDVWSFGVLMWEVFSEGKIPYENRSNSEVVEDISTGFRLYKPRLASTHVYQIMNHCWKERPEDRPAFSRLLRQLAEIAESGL
# Sequence of BTK (Q06187 whole entry): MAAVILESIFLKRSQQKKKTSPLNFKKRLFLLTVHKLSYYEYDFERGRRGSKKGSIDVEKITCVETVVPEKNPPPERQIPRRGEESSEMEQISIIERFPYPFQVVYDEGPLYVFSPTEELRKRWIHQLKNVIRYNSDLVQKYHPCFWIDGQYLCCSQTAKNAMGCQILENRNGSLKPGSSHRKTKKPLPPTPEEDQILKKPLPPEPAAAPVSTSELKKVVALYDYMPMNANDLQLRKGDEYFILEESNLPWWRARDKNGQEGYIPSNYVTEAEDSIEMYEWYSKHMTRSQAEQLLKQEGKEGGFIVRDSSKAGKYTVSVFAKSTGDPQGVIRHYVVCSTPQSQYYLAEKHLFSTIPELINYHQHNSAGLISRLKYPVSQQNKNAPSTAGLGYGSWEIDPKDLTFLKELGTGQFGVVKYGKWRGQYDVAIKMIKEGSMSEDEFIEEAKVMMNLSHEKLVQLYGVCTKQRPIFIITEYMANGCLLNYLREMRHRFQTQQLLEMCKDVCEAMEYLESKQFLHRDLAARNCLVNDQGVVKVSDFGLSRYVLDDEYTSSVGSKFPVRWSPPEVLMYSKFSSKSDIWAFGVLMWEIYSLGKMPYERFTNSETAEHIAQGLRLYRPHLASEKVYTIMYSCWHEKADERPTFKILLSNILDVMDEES
SMILES,IC50 [1],IC50 [2],Selectivity (based on IC50) [2]
"C=CC(=O)N1CC2CC1C(n1nc(-c3ccc(Oc4ccccc4)cc3)c3c(N)ncnc31)C2 (centres unmarked) [Ex. 1, 1-(6-(4-amino-3-(4-phenoxyphenyl)-1H-pyrazolo[3,4-d]pyrimidin-1-yl)-2-azabicyclo[2.2.1]heptan-2-yl)prop-2-en-1-one]",0.0021 µM,0.189 µM,89.9
"C=CC(=O)N1CC2CC1C(n1nc(-c3ccc(Sc4ccccc4)cc3)c3c(N)ncnc31)C2 (centres unmarked) [Ex. 33, 1-(6-(4-amino-3-(4-(phenylthio)phenyl)-1H-pyrazolo[3,4-d]pyrimidin-1-yl)-2-azabicyclo[2.2.1]heptan-2-yl)prop-2-en-1-one]",0.0033 µM,> 1 µM,>303.0
"N#CC(=CC1CC1)C(=O)N1C[C@H]2CC(n3nc(-c4ccc(C(=O)Nc5ccccn5)cc4)c4c(N)ncnc43)[C@H]1C2 (stereo partly drawn) [Ex. 75, 4-(4-amino-1-((1R,4R)-2-(2-cyano-3-cyclopropylacryloyl)-2-azabicyclo[2.2.1]heptan-6-yl)-1H-pyrazolo[3,4-d]pyrimidin-3-yl)-N-(pyridin-2-yl)benzamide]",0.004 µM,0.305 µM,76.2
"C=CC(=O)N1CC2CC1C(n1nc(-c3ccc(Oc4cccc(C(F)(F)F)c4)cc3)c3c(N)ncnc31)C2 (centres unmarked) [Ex. 43, 1-(6-(4-amino-3-(4-(3-(trifluoromethyl)phenoxy)phenyl)-1H-pyrazolo[3,4-d]pyrimidin-1-yl)-2-azabicyclo[2.2.1]heptan-2-yl)prop-2-en-1-one]",0.0031 µM,0.268 µM,86.4
"CN1CCN(C/C=C/C(=O)N2CC3CC2C(n2nc(-c4ccc(Oc5ccccc5)cc4)c4c(N)ncnc42)C3)CC1 (centres unmarked) [Ex. 62, (E)-1-(6-(4-amino-3-(4-phenoxyphenyl)-1H-pyrazolo[3,4-d]pyrimidin-1-yl)-2-azabicyclo[2.2.1]heptan-2-yl)-4-(4-methylpiperazin-1-yl)but-2-en-1-one]",0.0058 µM,–,–
"C=CC(=O)N1CC2CC1C(n1nc(-c3cccc(C(=O)Nc4ccc(C(F)(F)F)nc4)c3)c3c(N)ncnc31)C2 (centres unmarked) [Ex. 26, 3-(1-(2-acryloyl-2-azabicyclo[2.2.1]heptan-6-yl)-4-amino-1H-pyrazolo[3,4-d]pyrimidin-3-yl)-N-(6-(trifluoromethyl)pyridin-3-yl)benzamide]",0.295 µM,–,–
"C=CC(=O)N1CC2CC1C(n1nc(-c3ccc(NC(=O)c4ccccc4N(C)C)cc3)c3c(N)ncnc31)C2 (centres unmarked) [Ex. 57, N-(4-(1-(2-acryloyl-2-azabicyclo[2.2.1]heptan-6-yl)-4-amino-1H-pyrazolo[3,4-d]pyrimidin-3-yl)phenyl)-2-(dimethylamino)benzamide]",0.0088 µM,–,–
"C=CC(=O)N1C[C@@H]2C[C@H]1[C@@H](n1nc(-c3ccc(C(=O)Nc4ncccc4C)cc3)c3c(N)ncnc31)C2 [Ex. 77, 4-(1-((1S,4R,6S)-2-acryloyl-2-azabicyclo[2.2.1]heptan-6-yl)-4-amino-1H-pyrazolo[3,4-d]pyrimidin-3-yl)-N-(3-methylpyridin-2-yl)benzamide]",0.0064 µM,–,–
"CC#CC(=O)N1CC2CC1C(n1nc(-c3ccc(C(=O)Nc4ccccc4)cc3)c3c(N)ncnc31)C2 (centres unmarked) [Ex. 20, 4-(4-amino-1-(2-(but-2-ynoyl)-2-azabicyclo[2.2.1]heptan-6-yl)-1H-pyrazolo[3,4-d]pyrimidin-3-yl)-N-phenylbenzamide]",> 1 µM,–,–
"C=CC(=O)N1CC2CC1C(n1nc(-c3ccc(COC)cc3)c3c(N)ncnc31)C2 (centres unmarked) [Ex. 27, 1-(6-(4-amino-3-(4-(methoxymethyl)phenyl)-1H-pyrazolo[3,4-d]pyrimidin-1-yl)-2-azabicyclo[2.2.1]heptan-2-yl)prop-2-en-1-one]",0.0296 µM,–,–
"C=CC(=O)N1CC2CC1C(n1nc(-c3ccc(Oc4ccncc4)cc3)c3c(N)ncnc31)C2 (centres unmarked) [Ex. 36, 1-(6-(4-amino-3-(4-(pyridin-4-yloxy)phenyl)-1H-pyrazolo[3,4-d]pyrimidin-1-yl)-2-azabicyclo[2.2.1]heptan-2-yl)prop-2-en-1-one]",> 1 µM,–,–
"C#CC(=O)N1CC2CC1C(n1nc(-c3ccc(Nc4ccccc4)cc3)c3c(N)ncnc31)C2 (centres unmarked) [Ex. 31, 1-(6-(4-amino-3-(4-(phenylamino)phenyl)-1H-pyrazolo[3,4-d]pyrimidin-1-yl)-2-azabicyclo[2.2.1]heptan-2-yl)prop-2-yn-1-one]",0.0125 µM,–,–
"C=CC(=O)N1CC2CC1C(n1nc(-c3cccc(C(=O)Nc4ccccc4)c3)c3c(N)ncnc31)C2 (centres unmarked) [Ex. 21, 3-(1-(2-acryloyl-2-azabicyclo[2.2.1]heptan-6-yl)-4-amino-1H-pyrazolo[3,4-d]pyrimidin-3-yl)-N-phenylbenzamide]",0.063 µM,–,–
"C=CC(=O)N1CC2CC1CC2n1nc(-c2cccc(C(=O)Nc3ccccc3)c2)c2c(N)ncnc21 (centres unmarked) [Ex. 24, 3-(1-(2-acryloyl-2-azabicyclo[2.2.1]heptan-5-yl)-4-amino-1H-pyrazolo[3,4-d]pyrimidin-3-yl)-N-phenylbenzamide]",0.56 µM,–,–
"C=CC(=O)N1CC2CC1CC2n1nc(-c2cccc(Oc3ccccc3)c2)c2c(N)ncnc21 (centres unmarked) [Ex. 25, 1-(5-(4-amino-3-(3-phenoxyphenyl)-1H-pyrazolo[3,4-d]pyrimidin-1-yl)-2-azabicyclo[2.2.1]heptan-2-yl)prop-2-en-1-one]",0.0723 µM,–,–
"C#CC(=O)N1CC2CC1C(n1nc(-c3ccc(-c4ccccc4)cc3)c3c(N)ncnc31)C2 (centres unmarked) [Ex. 30, 1-(6-(4-amino-3-(biphenyl-4-yl)-1H-pyrazolo[3,4-d]pyrimidin-1-yl)-2-azabicyclo[2.2.1]heptan-2-yl)prop-2-yn-1-one]",> 1 µM,–,–
"N#CCC(=O)N1C[C@@H]2C[C@@H]1[C@@H](n1nc(-c3ccc(C(=O)Nc4ccccn4)cc3)c3c(N)ncnc31)C2 [Ex. 74, 4-(4-amino-1-((1R,4R,6S)-2-(2-cyanoacetyl)-2-azabicyclo[2.2.1]heptan-6-yl)-1H-pyrazolo[3,4-d]pyrimidin-3-yl)-N-(pyridin-2-yl)benzamide]",0.123 µM,–,–
"CC(C)C=C(C#N)C(=O)N1C[C@H]2CC(n3nc(-c4ccc(C(=O)Nc5ccccn5)cc4)c4c(N)ncnc43)[C@H]1C2 (stereo partly drawn) [Ex. 76, 4-(4-amino-1-((1R,4R)-2-(2-cyano-4-methylpent-2-enoyl)-2-azabicyclo[2.2.1]heptan-6-yl)-1H-pyrazolo[3,4-d]pyrimidin-3-yl)-N-(pyridin-2-yl)benzamide]",0.01 µM,–,–
"Nc1ncnc2c1c(-c1ccc(Oc3ccccc3)cc1)nn2C1CC2CC1CN2C(=O)/C=C/CN1CCCCC1 (centres unmarked) [Ex. 66, (E)-1-(5-(4-amino-3-(4-phenoxyphenyl)-1H-pyrazolo[3,4-d]pyrimidin-1-yl)-2-azabicyclo[2.2.1]heptan-2-yl)-4-(piperidin-1-yl)but-2-en-1-one]",0.0496 µM,–,–
"C#CC(=O)N1CC2CC1CC2n1nc(-c2ccc(Oc3ccccc3)cc2)c2c(N)ncnc21 (centres unmarked) [Ex. 11, 1-(5-(4-amino-3-(4-phenoxyphenyl)-1H-pyrazolo[3,4-d]pyrimidin-1-yl)-2-azabicyclo[2.2.1]heptan-2-yl)prop-2-yn-1-one]",0.0028 µM,–,–
"CC#CC(=O)N1CC2CC1C(n1nc(-c3cccc(C(=O)Nc4ccccc4)c3)c3c(N)ncnc31)C2 (centres unmarked) [Ex. 22, 3-(4-amino-1-(2-but-2-ynoyl-2-azabicyclo[2.2.1]heptan-6-yl)-1H-pyrazolo[3,4-d]pyrimidin-3-yl)-N-phenylbenzamide]",> 1 µM,–,–
"C=CC(=O)N1CC2CC1C(n1nc(-c3cccc(C(=O)Nc4ccc(C(C)C)cc4)c3)c3c(N)ncnc31)C2 (centres unmarked) [Ex. 8, 3-(1-(2-acryloyl-2-azabicyclo[2.2.1]heptan-6-yl)-4-amino-1H-pyrazolo[3,4-d]pyrimidin-3-yl)-N-(4-isopropylphenyl)benzamide]",0.139 µM,–,–
"C#CC(=O)N1CC2CC1C(n1nc(-c3cccc(C(=O)Nc4ccc(C(C)C)c(C)c4)c3)c3c(N)ncnc31)C2 (centres unmarked) [Ex. 9, 3-(4-amino-1-(2-propioloyl-2-azabicyclo[2.2.1]heptan-6-yl)-1H-pyrazolo[3,4-d]pyrimidin-3-yl)-N-(4-isopropyl-3-methylphenyl)benzamide]",0.0538 µM,–,–
"Nc1ncnc2c1c(-c1ccc(Oc3ccccc3)cc1)nn2C1CC2CC1N(C(=O)/C=C/CBr)C2 (centres unmarked) [Ex. 44, (E)-1-(6-(4-amino-3-(4-phenoxyphenyl)-1H-pyrazolo[3,4-d]pyrimidin-1-yl)-2-azabicyclo[2.2.1]heptan-2-yl)-4-bromobut-2-en-1-one]",0.0059 µM,–,–
"C=C(C)C(=O)N1C[C@@H]2C[C@@H]1[C@@H](n1nc(-c3ccc(C(=O)Nc4ccccn4)cc3)c3c(N)ncnc31)C2 [Ex. 84, 4-(4-amino-1-((1R,4R,6S)-2-methacryloyl-2-azabicyclo[2.2.1]heptan-6-yl)-1H-pyrazolo[3,4-d]pyrimidin-3-yl)-N-(pyridin-2-yl)benzamide]",> 0.1 µM,–,–
"CC#CC(=O)N1CC2CC1C(n1nc(-c3ccc(Oc4ccccc4)cc3)c3c(N)ncnc31)C2 (centres unmarked) [Ex. 5, 1-(6-(4-amino-3-(4-phenoxyphenyl)-1H-pyrazolo[3,4-d]pyrimidin-1-yl)-2-azabicyclo[2.2.1]heptan-2-yl)but-2-yn-1-one]",0.0276 µM,–,–
"C=CC(=O)N1CC2CC1C(n1nc(-c3cccc(C(=O)Nc4ccc(C(C)C)c(C)c4)c3)c3c(N)ncnc31)C2 (centres unmarked) [Ex. 10, 3-(1-(2-acryloyl-2-azabicyclo[2.2.1]heptan-6-yl)-4-amino-1H-pyrazolo[3,4-d]pyrimidin-3-yl)-N-(4-isopropyl-3-methylphenyl)benzamide]",0.088 µM,–,–
